Test results published in publication PMC10447267, “Assessment of the potential of the MET inhibitor tepotinib to affect the pharmacokinetics of CYP3A4 and P-gp substrates” (Investigational New Drugs, 2023).
Where two headings read alike, the source gives them in different places.

Assays:
[1] = Tepotinib steady-state pharmacokinetics at the clinical dose; conditions: human, in vivo, oral, 500 mg
CYP3A4 mRNA = CYP3A4 mRNA induction in human hepatocyte cultures; assay type: in vitro ADME
Experimental: (§1) In vitro studies in primary human hepatocyte cultures were conducted to assess the potential of tepotinib to induce human CYP1A1/2, 2B6 and 3A4/5 activity, the latter based on testosterone 6β-hydroxylation reactions (Online Resource 2). […] The studies included positive (rifampin) and vehicle (DMSO) controls. A negative control (flumazenil) was also included in the mRNA studies. The study designs, test systems and selection of prototypical inducers used in these studies were consistent with PhRMA, FDA and EMA guidelines.

CYP2C9 = target: T1, CYP2C9 (Homo sapiens, UniProt P11712); assay: CYP2C9 inhibition in pooled human liver microsomes; assay type: in vitro ADME; conditions: for inhibition at 49.5 µM: both sexes, human, pooled human liver microsomes, probe diclofenac
T1 construct: pooled mixed-gender human liver microsomes; from tissue; host or cells: pooled mixed-gender human liver microsomes
T1 sequence (P11712 whole entry): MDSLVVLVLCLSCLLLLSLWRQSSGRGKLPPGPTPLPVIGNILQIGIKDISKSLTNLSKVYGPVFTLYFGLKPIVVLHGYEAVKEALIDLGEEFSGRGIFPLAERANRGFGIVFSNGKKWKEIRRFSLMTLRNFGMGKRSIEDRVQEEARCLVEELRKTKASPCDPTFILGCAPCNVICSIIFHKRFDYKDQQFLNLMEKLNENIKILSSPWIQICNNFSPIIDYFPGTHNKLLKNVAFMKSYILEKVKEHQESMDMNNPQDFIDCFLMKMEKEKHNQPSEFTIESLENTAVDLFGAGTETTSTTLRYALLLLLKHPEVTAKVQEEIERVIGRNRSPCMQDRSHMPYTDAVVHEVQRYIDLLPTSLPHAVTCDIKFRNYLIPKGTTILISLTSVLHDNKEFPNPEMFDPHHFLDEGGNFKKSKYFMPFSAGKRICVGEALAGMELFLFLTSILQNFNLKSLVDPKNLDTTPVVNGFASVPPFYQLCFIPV
Experimental: (§2) The potential of tepotinib and MSC2571109A to inhibit CYP450 enzymes CYP1A2, 2A6, 2B6, 2C8, 2C9, 2C19, 2D6, 2E1, and 3A4/5 in vitro was evaluated using CYP-catalyzed reactions in pooled mixed-gender human liver microsomes using specific substrates and liquid chromatography/tandem mass spectrometry (LC–MS/MS) readouts. […] Testosterone 6β-hydroxylation was assessed in the MSC2571109A study. Assessments of mechanism-based inhibition of the above listed CYP450 enzymes were conducted after pre-incubation of the microsomes with tepotinib or MSC2571109A. A brief summary of the incubation methods, including details of substrates used for the other CYP enzymes (which are not pertinent to this article) are presented in Online Resource 1. The LC–MS/MS-based methods used were consistent with those previously described in the literature.

CYP2A6 = target: T2, CYP2A6 (Homo sapiens, UniProt P11509); assay: CYP2A6 inhibition in pooled human liver microsomes; assay type: in vitro ADME; conditions: Coumarin 7-hydroxylation; for inhibition at 49.5 µM: both sexes, human, pooled human liver microsomes, probe coumarin
T2 construct: pooled mixed-gender human liver microsomes; from tissue; host or cells: pooled mixed-gender human liver microsomes
T2 sequence (P11509 1-494): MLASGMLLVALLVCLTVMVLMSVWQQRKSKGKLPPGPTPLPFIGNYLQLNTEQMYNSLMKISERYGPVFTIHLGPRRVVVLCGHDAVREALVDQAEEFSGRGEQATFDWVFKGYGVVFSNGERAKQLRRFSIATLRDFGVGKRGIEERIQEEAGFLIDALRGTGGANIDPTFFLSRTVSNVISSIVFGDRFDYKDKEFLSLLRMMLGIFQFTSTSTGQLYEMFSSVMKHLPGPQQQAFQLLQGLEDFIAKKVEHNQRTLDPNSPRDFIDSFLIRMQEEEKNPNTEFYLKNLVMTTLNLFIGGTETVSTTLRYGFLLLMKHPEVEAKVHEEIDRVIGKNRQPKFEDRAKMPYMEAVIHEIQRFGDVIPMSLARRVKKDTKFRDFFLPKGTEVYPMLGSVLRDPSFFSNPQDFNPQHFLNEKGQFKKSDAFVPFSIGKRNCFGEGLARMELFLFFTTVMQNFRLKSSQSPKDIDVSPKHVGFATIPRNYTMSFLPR
Experimental: as §2

CYP2C19 = target: T3, CYP2C19 (Homo sapiens, UniProt P33261); assay: CYP2C19 inhibition in pooled human liver microsomes; assay type: in vitro ADME; conditions: for inhibition at 49.5 µM: both sexes, human, pooled human liver microsomes, probe S-mephenytoin (4-hydroxylation)
T3 construct: pooled mixed-gender human liver microsomes; from tissue; host or cells: pooled mixed-gender human liver microsomes
T3 sequence (P33261 whole entry): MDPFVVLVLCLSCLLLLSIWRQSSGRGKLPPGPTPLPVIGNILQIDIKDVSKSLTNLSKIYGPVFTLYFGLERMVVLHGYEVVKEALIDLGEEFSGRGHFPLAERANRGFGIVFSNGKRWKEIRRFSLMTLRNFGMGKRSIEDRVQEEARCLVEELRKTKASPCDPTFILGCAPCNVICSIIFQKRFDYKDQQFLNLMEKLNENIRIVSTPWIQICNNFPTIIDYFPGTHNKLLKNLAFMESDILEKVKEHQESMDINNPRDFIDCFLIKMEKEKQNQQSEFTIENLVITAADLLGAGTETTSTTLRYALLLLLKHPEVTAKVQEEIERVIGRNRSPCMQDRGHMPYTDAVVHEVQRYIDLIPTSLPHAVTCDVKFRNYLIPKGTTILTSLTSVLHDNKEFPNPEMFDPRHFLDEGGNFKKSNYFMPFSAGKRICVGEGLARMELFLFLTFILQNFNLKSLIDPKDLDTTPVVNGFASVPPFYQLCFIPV
Experimental: as §2

[2] = human mass balance study; cited from earlier work
CYP3A4/5 = assay type: in vitro ADME, human
Experimental: as §1

CYP1A1/2 = CYP1A1/2 activity induction in primary human hepatocyte cultures; assay type: in vitro ADME; conditions: enzyme activity quantification
Experimental: as §1

[3] = substance not given, taken as tepotinib; ref the healthcare business of Merck KGaA, Darmstadt, Germany, data on file; cited from earlier work
P-gp = P-gp (Homo sapiens, UniProt P08183); assay: P-gp inhibition in Caco-2 cell monolayers with [3H]-digoxin; assay type: in vitro ADME; design: An in vitro assay in Caco-2 cell monolayers; endogenous in cells; host or cells: Caco-2
Sequence of P-gp (P08183 whole entry): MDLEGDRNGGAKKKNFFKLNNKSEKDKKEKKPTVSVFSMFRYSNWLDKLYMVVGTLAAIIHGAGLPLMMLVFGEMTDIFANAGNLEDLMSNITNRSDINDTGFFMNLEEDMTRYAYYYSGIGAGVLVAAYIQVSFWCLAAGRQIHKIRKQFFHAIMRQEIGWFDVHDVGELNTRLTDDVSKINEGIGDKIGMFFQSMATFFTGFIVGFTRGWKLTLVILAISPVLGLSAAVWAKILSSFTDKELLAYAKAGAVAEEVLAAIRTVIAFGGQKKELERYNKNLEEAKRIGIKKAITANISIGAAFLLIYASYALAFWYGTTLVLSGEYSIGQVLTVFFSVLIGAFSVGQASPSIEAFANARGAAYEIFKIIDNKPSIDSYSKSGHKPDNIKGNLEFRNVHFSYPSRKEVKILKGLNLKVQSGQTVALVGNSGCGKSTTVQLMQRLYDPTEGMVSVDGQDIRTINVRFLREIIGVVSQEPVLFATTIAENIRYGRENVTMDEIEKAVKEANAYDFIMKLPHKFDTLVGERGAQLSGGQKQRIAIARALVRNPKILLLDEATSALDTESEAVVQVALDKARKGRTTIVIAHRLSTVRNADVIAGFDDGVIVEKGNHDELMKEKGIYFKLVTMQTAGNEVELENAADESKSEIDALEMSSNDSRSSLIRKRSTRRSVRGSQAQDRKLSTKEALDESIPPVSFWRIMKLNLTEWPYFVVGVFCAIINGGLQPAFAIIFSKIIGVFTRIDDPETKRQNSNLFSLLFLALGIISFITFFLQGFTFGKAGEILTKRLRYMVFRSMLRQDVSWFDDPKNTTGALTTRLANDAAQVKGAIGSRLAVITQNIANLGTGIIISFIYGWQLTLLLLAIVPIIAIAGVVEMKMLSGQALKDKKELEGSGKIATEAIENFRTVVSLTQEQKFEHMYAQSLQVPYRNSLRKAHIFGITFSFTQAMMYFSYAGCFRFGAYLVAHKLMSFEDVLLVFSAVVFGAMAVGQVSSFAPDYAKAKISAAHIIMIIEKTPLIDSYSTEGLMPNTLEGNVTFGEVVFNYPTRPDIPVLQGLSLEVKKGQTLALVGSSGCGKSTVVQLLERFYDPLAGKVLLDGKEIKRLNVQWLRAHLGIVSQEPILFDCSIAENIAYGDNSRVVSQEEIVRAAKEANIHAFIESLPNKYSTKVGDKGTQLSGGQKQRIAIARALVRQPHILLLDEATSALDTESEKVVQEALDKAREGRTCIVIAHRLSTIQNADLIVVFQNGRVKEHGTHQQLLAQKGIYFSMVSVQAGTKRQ
Experimental: An in vitro assay in Caco-2 cell monolayers was performed to assess the P-gp inhibition potential of tepotinib (Online Resource 4). [^3H]-digoxin was used as a P-gp probe substrate. Control experiments were conducted to ensure acceptable performance of the cells. The extent of inhibition in these studies, expressed as IC50, was determined by quantification of the transport or uptake of ^3H-digoxin in Caco-2 cells in the absence and presence of tepotinib.
To assess the potential clinical risk and to identify whether an in vivo DDI study was required, drug concentration ([I])/IC50 ratios and/or R-values were calculated considering the mean human steady state exposure of parent drug and its metabolite, observed at the clinical dose of 500 mg tepotinib. Results were assessed according to both FDA and EMA criteria.

[4] = P-gp, clinical dose of 500 mg once daily

SMILES: CN1CCC(COc2cnc(-c3cccc(Cn4nc(-c5cccc(C#N)c5)ccc4=O)c3)nc2)CC1 [tepotinib]
- Tmax ([1]; Median steady state Tmax): 8 h
- Tmax ([1]; Steady state Tmax, range): 2 to 24 h
- Increase in CYP3A4 mRNA (CYP3A4 mRNA; human hepatocyte cultures, maximum (up to), concentration-dependent): up to 7 fold
- Effect on CYP3A4 mRNA (in words) (CYP3A4 mRNA; in vitro): increased CYP3A4 mRNA
- Potential for time-dependent inhibition (CYP2C9; Diclofenac 4-hydroxylation): Little or No
- IC50 (CYP2C9; Diclofenac 4-hydroxylation, 30-min preincubation, read-out: Time-dependent inhibition IC50): 23 µM
- inhibition at 49.5 µM (CYP2C9; Diclofenac 4-hydroxylation, 30-min preincubation, read-out: Time-dependent inhibition, maximum inhibition at 49.5 µM): 52%
- inhibition at 49.5 µM (CYP2C9; Diclofenac 4-hydroxylation, zero-minute preincubation, read-out: Direct inhibition, maximum inhibition at 49.5 µM): 58%
- IC50 (CYP2C9; human liver microsomes, Diclofenac 4-hydroxylation, zero-minute preincubation, read-out: Direct inhibition IC50): 27 µM
- Ki (CYP2C9; human liver microsomes, direct inhibition, read-out: Ki, CYP2C9-catalyzed probe substrate reaction): ≥ 11 µM
- Potential for time-dependent inhibition (CYP2A6): Little or No
- IC50 (CYP2A6; 30-min preincubation, read-out: Time-dependent inhibition IC50): 39 µM
- inhibition at 49.5 µM (CYP2A6; 30-min preincubation, read-out: Time-dependent inhibition, maximum inhibition at 49.5 µM): 52%
- inhibition at 49.5 µM (CYP2A6; zero-minute preincubation, read-out: Direct inhibition, maximum inhibition at 49.5 µM): 51%
- IC50 (CYP2A6; human liver microsomes, zero-minute preincubation, read-out: Direct inhibition IC50): > 49.5 µM
- Potential for time-dependent inhibition (CYP2C19; S-Mephenytoin 4-hydroxylation): Little or No
- IC50 (CYP2C19; S-Mephenytoin 4-hydroxylation, 30-min preincubation, read-out: Time-dependent inhibition IC50): 29 µM
- inhibition at 49.5 µM (CYP2C19; S-Mephenytoin 4-hydroxylation, 30-min preincubation, read-out: Time-dependent inhibition, maximum inhibition at 49.5 µM): 65%
- inhibition at 49.5 µM (CYP2C19; S-Mephenytoin 4-hydroxylation, zero-minute preincubation, read-out: Direct inhibition, maximum inhibition at 49.5 µM): 64%
- IC50 (CYP2C19; human liver microsomes, S-Mephenytoin 4-hydroxylation, zero-minute preincubation, read-out: Direct inhibition IC50): 30 µM
- Ki (CYP2C19; human liver microsomes, read-out: Ki, CYP2C19-catalyzed probe substrate reaction): ≥ 11 µM
- Share of total circulating radioactivity in plasma [2]: 55%
- Induction of CYP3A4/5 activity (in words) (CYP3A4/5; in vitro): did not induce
- Induction of CYP3A4/5 activity (CYP3A4/5; primary human hepatocyte cultures, enzyme activity quantification (testosterone 6β-hydroxylation)): less than 40 % of positive control
- Induction of CYP1A1/2 activity (CYP1A1/2): less than 40 % of positive control
- Geometric mean free Cmax [3]: 52.4 nM
- IC50 (P-gp; Caco-2 cell monolayers, [3H]-digoxin probe substrate, read-out: Apparent IC50, P-gp inhibition): 0.41 µM
- [I]/IC50 ratio (intestinal) (P-gp; [4]): 8917
- [I]/IC50 ratio (systemic) (P-gp; [4]): 0.39
